These results are taken from the METLIN SMRT retention time set (Domingo-Almenara et al. 2019).

The nature of this series: gradient 5% acetonitrile 3 min, to 50% in 2 min, to 85% in 15 min, held 3 min, 100 µL/min. As to conditions: column: Zorbax Extend-C18 2.1 x 50 mm; eluents: water / acetonitrile, 0.1% formic acid. The gist of the method: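 Over 3 months, pure standards in mixtures of ~100 molecules were run by HPLC coupled to a quadrupole time-of-flight mass spectrometer in positive and negative ionization mode. The column was a Zorbax Extend-C18 (2.1 × 50 mm, 1.8 μm) at 100 μL/min, eluted with water and acetonitrile each holding 0.1% formic acid, with 40 μL dead and 900 μL dwell volumes. Retention time was determined from adduct peaks chosen by software and checked manually.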
`O=C(Nc1ccc(N2CCN(C3CCCC3)C2=O)nc1)c1ccc(Br)cc1` had an RP-LC retention time of 876 s. Molecule `O=C(Cn1ccn2nc(-c3ccccc3)c(CO)c2c1=O)Nc1ccc2c(c1)OCCO2` displayed an RP-LC retention time of 759 s. The molecule `O=C(Nc1cccc(C(F)(F)F)c1)Nc1c(-c2ccncc2)nc2ccccn12` registered an RP-LC retention time of 655 s. The same measure for `Cn1nc(C(=O)Nc2ccccc2)c2c1CCN(C(=O)Nc1ccc(Br)cc1F)C2`: 956 s; for `O=C(Nc1cc(-c2ccccn2)no1)c1ccc2c(c1)OCO2`: 772 s; for `CC1CCN(Cc2csc(N3CCN(C(=O)CCCc4ccccc4)CC3)n2)CC1`: 715 s. The same measure for `COCC(=O)N(CC(=O)N1CCc2sccc2C1COc1ccc(Cl)c(C)c1)C1CC1` (stereo unspecified): 960 s. Under `CN1C(=O)CCc2cc(NC(=O)c3n[nH]c4ccccc34)ccc21` stands 730 s; under `O=S(=O)(c1ccc(-c2cnc(C3CCCC3)o2)s1)N1CCN(c2ncccn2)CC1`, 1120 s. Molecule `O=C(COc1ccc(Cl)cc1)Nc1nnc(SCC(=O)NC2CCCC2)s1` showed an RP-LC retention time of 798 s. The same measure for `CCCOc1nn(CCC)cc1C(=O)N1CCC(C(=O)OC)CC1`: 736 s.

`CCOC(=O)CNC(=O)NCc1cccn1Cc1cccc(C)c1` gave an RP-LC retention time of 834 s. Under `Cn1cnnc1SCC(=O)Nc1ccc(F)cc1` stands 603 s. The same measure for `Cc1nc(N2CCOCC2)c2c(C(=O)N3CCN(c4cc(Cl)ccc4C)CC3)c(C)oc2n1`: 983 s; for `CCOc1ccc(S(=O)(=O)N2CCCC(C(=O)N3CCOCC3)C2)cc1` (stereo unspecified): 777 s. The same measure for `COCCCNc1c(-c2ccc(C)cc2)nc2sc(C(N)=O)c(C)n12`: 705 s. In turn, `O=C(Cc1cccs1)N1CCCC(c2nncn2-c2ccccc2)C1` (stereo unspecified) came in with an RP-LC retention time of 663 s. The same measure for `CC(C)NC(=O)N1CCN(Cc2nc3cc(C(C)(C)C)ccc3o2)CC1`: 712 s; for `c1ccc2sc(N3CCN(Cc4ccc5c(c4)OCO5)CC3)nc2c1`: 731 s. On to `CCCn1cc(C(=O)NCc2ccccc2C)c(S(=O)(=O)N2CCC(C)CC2)n1`, for which the RP-LC retention time stood at 1110 s. Take `Cc1ccc(C)c(NC(=O)Cn2nc3cc(C)nc(N4CCCC4)n3c2=O)c1`: the RP-LC retention time was found to be 785 s.

As to `Cc1cc(N2CCCCC2)nc(N2CCN(S(=O)(=O)c3ccc(-c4ccccc4)cc3)CC2)n1`, the RP-LC retention time worked out at 935 s. The same measure for `CCN1C(=O)COc2ccc(-c3noc(-c4ccc(C#N)cc4)n3)cc21`: 1050 s; for `Cc1cc(C)c(S(=O)(=O)N2CCc3c(c(-c4nnc(-c5ccc(F)cc5)o4)nn3C)C2)cc1C`: 1090 s; for `CC(C)c1noc(-c2cc(=O)n(CC(=O)Nc3ccccc3F)c3ccccc23)n1`: 984 s. Under `CC(C)c1nc(CNC(=O)c2ccccc2)no1` stands 707 s. Under `CCNC(=O)c1ccc(-n2cccc2)nc1` stands 708 s; under `FC(F)(F)c1ccc(C2CNCCO2)cc1` (stereo unspecified), 570 s. Consider `O=C(c1cnn2c(-c3ccc4c(c3)OCO4)ccnc12)N1CCN(c2ccc(F)cc2)CC1`, for which the RP-LC retention time is 890 s. The same measure for `CCCN1CCN(C(=O)c2ccc(CN3CCN(Cc4ccccc4)C(=O)C3=O)cc2)CC1`: 811 s; for `O=C(CS(=O)(=O)Cc1ccccc1)Nc1nc(-c2ccccn2)cs1`: 614 s; for `CCc1ccc(NC(=O)CSC2=C(C#N)C3(CCCCC3)C(C#N)C(=O)N2)cc1` (stereo unspecified): 1030 s. Under `CCOc1ccc(C(=O)N2CCC3(C2)C(=O)N(C)c2ccc(OC)cc23)cc1` (stereo unspecified) stands 788 s; under `CC1=C(c2ccc(C)c(C)c2)S(=O)(=O)N=C1N1CCCN(C(=O)NC(C)(C)C)CC1`, 888 s; under `CCc1ccc(CNC(=O)Cn2ccc3c(=O)n(CC)c(=O)n(CC)c32)cc1`, 783 s.

`CCCN1C(=O)Cc2ccccc2C1C(=O)NCc1ccccc1Br` (stereo unspecified): the RP-LC retention time was 831 s. `Cc1ccc(CNC(=O)c2cn(-c3ccc(NC(=O)C4CC4)cn3)cn2)cc1C` returned an RP-LC retention time of 818 s.

Regarding `O=c1ccc(-c2ccc(F)cc2)nn1CCc1nc(-c2ccccc2Cl)no1`, the RP-LC retention time was found to be 1020 s. Under `CC(C)NC(=O)N1CCOc2ccccc21` stands 774 s; under `CN(C)Cc1nc(-c2cn(C)c3ccccc23)no1`, 684 s. The same measure for `CN1C(=O)[C@H]2CN(Cc3ccc(Cl)c(F)c3)C[C@H]2C1=O`: 632 s.

For `CCOC(=O)N1CCN(C(=O)c2cccc(-n3cnnn3)c2)CC1`, the RP-LC retention time is 619 s. Molecule `CCC1CN(CC(=O)N2CCN(c3ccccn3)CC2)c2ccccc2S1` (stereo unspecified) displayed an RP-LC retention time of 723 s. Under `CCn1ncc(CN2CCCCC2CCn2cc(-c3ccccc3)nn2)c1C` (stereo unspecified) stands 530 s; under `Cn1c(CNC(=O)C2CCC2)nc2c1CN(C(=O)Nc1ccc(F)cc1)CC2`, 603 s. The same measure for `COc1ccc(-c2nnc(COc3ccc(NC(=O)c4ccnn4C)cc3)o2)cc1`: 790 s; for `Cc1cc(OCC(=O)N2CCN(c3ccccn3)CC2)nc2c1c(C)nn2-c1ccccc1`: 693 s.

With `CCOc1ncccc1CNC(=O)NCc1cccc(OC)c1`, the RP-LC retention time was determined as 570 s. The same measure for `COc1ccc(CN2C(=O)c3ccccc3C2C(=O)NC2CCCC2)c(OC)c1` (stereo unspecified): 848 s; for `O=C(Nc1ccc2c(c1)OCO2)c1nnc(C(=O)N2CCCC(C(=O)NC3CCCC3)C2)s1` (stereo unspecified): 860 s; for `CCn1ccc2c(cc(C(=O)Nc3ccc4c(c3)OCCO4)n2C)c1=O`: 721 s. On to `CCOC(=O)c1cccc(Nc2c(-c3ccc(SC)cc3)nc3cnccn23)c1`, for which the RP-LC retention time was found to be 950 s.

For `Cc1noc([C@@H]2CN(S(=O)(=O)c3cccs3)C[C@H]2C(N)=O)n1`, the RP-LC retention time was 658 s.

Molecule `Cc1ccc(OCC(O)Cn2c(C3CC3)nc3ccccc32)cc1C` (stereo unspecified) registered an RP-LC retention time of 724 s. The same measure for `COc1ccc(NC(=O)Cn2nc3cc(C)nc(Nc4ccc(C)c(C)c4)n3c2=O)cc1`: 1090 s; for `CCn1ccc(C(=O)NC(C)C)n1`: 642 s. `Cc1cccc(N2CCN(C(=O)c3cn4ccc(C)cc4n3)CC2)c1` gave an RP-LC retention time of 668 s.

Regarding `Cn1c(C(=O)N2CCCc3ccccc32)cc2c(=O)oc3ccccc3c21`, the RP-LC retention time was determined as 988 s.

The molecule `CN(C)c1ccc(N2C=C(C(=O)N3CCOCC3)S(=O)(=O)c3ccc(F)cc32)cc1` yielded an RP-LC retention time of 828 s. For `Cn1cccc1CN(C(=O)C1CCC1)C1CC1`, the RP-LC retention time was found to be 796 s. The same measure for `N#Cc1ccc(NC(=O)C2CCN(S(=O)(=O)c3cc(C(=O)N4CCCC4)cs3)CC2)cc1`: 792 s. As to `CC(C)n1nc(CNC(=O)c2ccc(F)c(F)c2)c2ccccc21`, the RP-LC retention time worked out at 962 s. The same measure for `CCOC(=O)/C=C/c1ccc(O)c(OC)c1`: 749 s; for `Cc1ccc(CNC(=O)CCCN2C(=O)CCn3nc(-c4cn(C)c5ccccc45)cc32)o1`: 815 s; for `O=C(NCCC1=CCCCC1)C(=O)NCC1(c2cccs2)CCCC1`: 1240 s. Under `CC1CCCCN1S(=O)(=O)c1ccc(C(=O)Nc2nc3c(s2)CCc2ccccc2-3)cc1` (stereo unspecified) stands 1270 s; under `CCCCN1N=C(C(=O)N2CCOCC2)S(=O)(=O)c2ccc(Cl)cc21`, 889 s. In turn, `Fc1ccc(OCc2cn(C3CN(Cc4cccc(F)c4)C3)nn2)cc1` had an RP-LC retention time of 688 s. The same measure for `O=C(NCc1ccc(F)cc1)N1CCC(c2noc(-c3cnccn3)n2)C1` (stereo unspecified): 705 s. The molecule `O=C(Nc1cccc(Nc2ncc(Br)c(NCCc3cnc[nH]3)n2)c1)N1CCCC1` yielded an RP-LC retention time of 592 s. Under `CCOC(=O)c1noc2ncnc(NCC3CCN(Cc4ccccc4F)CC3)c12` stands 661 s; under `Cc1ccc(NC(=O)C(=O)c2ccc[nH]2)cc1F`, 917 s; under `Cc1ccc(-c2cc3c(=O)n(Cc4noc(CN5CCCCC5C)n4)ccn3n2)cc1C` (stereo unspecified), 730 s.

`CCn1cc2c3c(cccc31)CN(C(=O)Nc1cc(C)ccc1OC)CC2` displayed an RP-LC retention time of 1080 s. The same measure for `CC#CCn1c(N2CCC[C@@H](N)C2)nc2c1c(=O)n(Cc1nc(C)c3ccccc3n1)c(=O)n2C`: 670 s.

For the molecule `Cc1ccc(-c2[nH]ncc2CN2CC(F)(F)C[C@H]2CN2CCOCC2)cc1C`, the RP-LC retention time came out at 654 s. `COCCN(Cc1ccc(C)cc1)Cc1cc(=O)n2ccc(C)cc2n1`: the RP-LC retention time turned out to be 656 s. Under `O=S(=O)(Nc1ccc(Cn2cncn2)cc1)c1ccc(F)cc1F` stands 714 s.

As for `Cc1ccccc1CNC(=O)C1CCN(S(=O)(=O)c2ccc3c(c2)NC(=O)CO3)CC1`, the RP-LC retention time was 777 s.

Molecule `CCc1nc2cc(N3CCC(C(=O)NC4CCCC4)CC3)cnc2nc1CC` registered an RP-LC retention time of 785 s. The same measure for `CCCN(CCC)CCNC(=O)C1CCCN(c2ncnc3c2nc2n3CCCCC2)C1` (stereo unspecified): 599 s.
